What was measured:
[1] = test system: peripheral blood mononuclear cells from Mtb-immune (PPD skin-test positive) subjects; format: cell-based, human; conditions: for Phil # responders (n = 38) / Phil % responders (n = 38): Philippines cohort; for Phil # responders (n = 38) / Phil % responders (n = 38) / Prov # responders (n = 22) / Prov % responders (n = 22): positive if SI≧2.0, peptide 1 and 10 μg/ml; for Prov # responders (n = 22) / Prov % responders (n = 22): Providence cohort; for number of Mtb-immune responders (proliferative response): all 40 Mtb-immune subjects
[2] = test system: peripheral blood mononuclear cells from Mtb-naïve (PPD skin-test negative) subjects; assay: Lymphoproliferation assay ([3H]thymidine, stimulation index), Mtb-naïve group; format: cell-based, human; conditions: 19 Mtb-naïve controls; SI≧2.0

| Sequence | Phil # responders (n = 38) [1] | Phil % responders (n = 38) [1] [%] | Prov # responders (n = 22) [1] | Prov % responders (n = 22) [1] [%] | number of Mtb-immune responders (proliferative response) ([1]; SI≧2.0) | % responders among Mtb-immune subjects ([1]; 40 Mtb-immune subjects, SI≧2.0) [%] | Mtb-naïve controls who responded [2] |
| --- | --- | --- | --- | --- | --- | --- | --- |
| AELPGVDPDKDVD (listed as Mycobacterium tuberculosis) [16-3, aa 54-66 of 16 kDa Mtb protein] | 0 | 0 | 1 | 3 | one | – | – |
| ALYLLDGLRAQDD (listed as Mycobacterium tuberculosis) [32-2, aa 35-47 of 32 kDa Mtb protein (Antigen 85A)] | 3 | 8 | 2 | 5 | – | – | – |
| CEVWSNVSETISGPRLYGEM (listed as Mycobacterium tuberculosis) [14-5, aa 74-93 of 14 kDa Mtb protein] | 2 | 5 | 2 | 5 | – | – | – |
| EYWGAQLNAMKP (listed as Mycobacterium tuberculosis) [32-11, aa 265-276 of 32 kDa Mtb protein (Antigen 85A)] | 3 | 8 | 1 | 3 | – | – | – |
| FAYGSFVRTVSLPVGA (listed as Mycobacterium tuberculosis) [16-5, aa 92-107 of 16 kDa Mtb protein] | 4 | 10 | 7 | 18 | six | 28 | none |
| FSELFAAFPSFAGLRPTFDT (listed as Mycobacterium tuberculosis) [16-2, aa 17-36 of 16 kDa Mtb protein] | 4 | 10 | 1 | 3 | – | – | – |
| GILTVSVAVSEGKPTEK (listed as Mycobacterium tuberculosis) [16-6, aa 119-135 of 16 kDa Mtb protein] | 2 | 5 | 1 | 3 | – | – | – |
| GSFGSAPSNGWLKLGLVEFG (listed as Mycobacterium tuberculosis) [14-2, aa 19-38 of 14 kDa Mtb protein] | 6 | 15 | 3 | 8 | six | – | – |
| GVFDFPDSGTHSW (listed as Mycobacterium tuberculosis) [32-10, aa 252-264 of 32 kDa Mtb protein (Antigen 85A)] | 3 | 8 | 2 | 5 | – | – | – |
| IAIGGAATGIAAVLTDGNPP [19-3] | 4 | 10 | 3 | 8 | six | – | – |
| KFLEGFVRTSNIKFQD (listed as Mycobacterium tuberculosis) [32-9, aa 227-242 of 32 kDa Mtb protein (Antigen 85A)] | 3 | 8 | 3 | 8 | six | – | – |
| LAIYHPQQFVYAGAMSGLLD (listed as Mycobacterium tuberculosis) [32-7, aa 135-154 of 32 kDa Mtb protein (Antigen 85A)] | 5 | 13 | 6 | 15 | six | – | – |
| LKLGLVEFGGVAKLNAEVMS (listed as Mycobacterium tuberculosis) [14-3, aa 30-49 of 14 kDa Mtb protein] | 3 | 8 | 4 | 10 | six | – | – |
| LPVEYLQVPSPSMGR (listed as Mycobacterium tuberculosis) [32-1, aa 6-20 of 32 kDa Mtb protein (Antigen 85A)] | 3 | 8 | 2 | 5 | – | – | – |
| LTIKAERTEQK (listed as Mycobacterium tuberculosis) [16-4, aa 74-84 of 16 kDa Mtb protein] | 0 | 0 | 5 | 13 | – | – | – |
